3 compounds from US20260327211A1, “MODULATORS OF A POTASSIUM CHANNEL AND OF TRPV1 CHANNEL AND USES THEREOF” (Bsense Bio Therapeutics Ltd., priority 2023, published 2026) can be followed below.

The structures appear in SMILES notation.

The test system of data set [1] is Post-operative Pain (POP) rats. Put plainly: Post-operative Pain model, thermal. Format: in vivo, rat. Conditions: 100 mg/kg, 6 hours post-dose. How it is done:
All animal experiments were carried out according to the Guide for the Care and Use of Laboratory Animals (2011 edition) and approved by the Israel National Institutional Animal Care and Use Committee (IACUC). Young adult male SD rats (Envigo RMS, Israel), were used for in vivo efficacy: Spared Nerve Injury (SNI), Distal Tibial Injury (DTI) and Post-operative Pain (POP), 200-220 grams, Chronic Post-Ischemia Pain (CPIP) 275-325 grams, Monosodium iodoacetate-induced osteoarthritis (MIA-OA) 180-220 grams; for in vivo safety: 200-250 grams at study initiation. […] The health status of the animals used in this study was examined upon their arrival. Only animals in good health were acclimatized to laboratory conditions and were used in the studies. All studies were performed following at least five days of animal acclimation. […] Water was monitored periodically. […]
Post-operative Pain (POP): For this model, animals were anesthetized by medetomidine/ketamine sodium IP. […] On the following day, animal responses to von Frey (VF) filaments and hot-plate testing were recorded.
Hot Plate: Animals were placed on hot plate analgesia meter (IITC Life Science Inc., CA, USA) set to 53±1° C., and the time until the first escape response was observed was recorded. […]

The target of a further data set is T1, 5-HT1B (Homo sapiens, UniProt P28222).
T1 construct: Eurofins DiscoverX, USA
T1 sequence (P28222 whole entry): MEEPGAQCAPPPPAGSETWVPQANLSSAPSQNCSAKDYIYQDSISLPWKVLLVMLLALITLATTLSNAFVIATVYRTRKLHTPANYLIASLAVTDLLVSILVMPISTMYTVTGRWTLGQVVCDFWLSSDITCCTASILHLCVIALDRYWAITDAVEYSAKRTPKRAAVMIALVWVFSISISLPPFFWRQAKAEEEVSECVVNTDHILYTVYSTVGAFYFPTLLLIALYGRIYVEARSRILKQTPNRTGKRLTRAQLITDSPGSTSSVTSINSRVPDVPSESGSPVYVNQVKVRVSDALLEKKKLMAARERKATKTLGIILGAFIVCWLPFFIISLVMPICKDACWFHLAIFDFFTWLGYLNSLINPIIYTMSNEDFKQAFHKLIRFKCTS
Put plainly: Functional selectivity panel, 5-HT1B. The class given is biochemical. How it is done: (§1) A broad panel of 78 recombinant targets was tested for pharmacologic activity in vitro through a variety of functional assays (Eurofins DiscoverX, USA), as part of the National Institute of Neurological Disorders and Stroke (NINDS) Preclinical Screening Platform for Pain (PSPP) program. The biological targets for the in vitro profiling have been selected based on avoiding opioid receptor stimulation and targets known to be associated with adverse events or targeted by drugs of abuse. […] For each test, a reference compound was evaluated at the target of interest as a positive control.

A short description of the next data set: DRG distribution in rat. Format: in vivo. The conditions noted are these: 8-hour post-dose.
The target of another data set is T2, hTRPV1 (Homo sapiens, UniProt Q8NER1).
T2 construct: CDS of NM_080704.4, inserted into the multiple cloning site of pcDNA3.1(+); host or cells: CHO/hKv7.2/3
T2 sequence (Q8NER1 whole entry): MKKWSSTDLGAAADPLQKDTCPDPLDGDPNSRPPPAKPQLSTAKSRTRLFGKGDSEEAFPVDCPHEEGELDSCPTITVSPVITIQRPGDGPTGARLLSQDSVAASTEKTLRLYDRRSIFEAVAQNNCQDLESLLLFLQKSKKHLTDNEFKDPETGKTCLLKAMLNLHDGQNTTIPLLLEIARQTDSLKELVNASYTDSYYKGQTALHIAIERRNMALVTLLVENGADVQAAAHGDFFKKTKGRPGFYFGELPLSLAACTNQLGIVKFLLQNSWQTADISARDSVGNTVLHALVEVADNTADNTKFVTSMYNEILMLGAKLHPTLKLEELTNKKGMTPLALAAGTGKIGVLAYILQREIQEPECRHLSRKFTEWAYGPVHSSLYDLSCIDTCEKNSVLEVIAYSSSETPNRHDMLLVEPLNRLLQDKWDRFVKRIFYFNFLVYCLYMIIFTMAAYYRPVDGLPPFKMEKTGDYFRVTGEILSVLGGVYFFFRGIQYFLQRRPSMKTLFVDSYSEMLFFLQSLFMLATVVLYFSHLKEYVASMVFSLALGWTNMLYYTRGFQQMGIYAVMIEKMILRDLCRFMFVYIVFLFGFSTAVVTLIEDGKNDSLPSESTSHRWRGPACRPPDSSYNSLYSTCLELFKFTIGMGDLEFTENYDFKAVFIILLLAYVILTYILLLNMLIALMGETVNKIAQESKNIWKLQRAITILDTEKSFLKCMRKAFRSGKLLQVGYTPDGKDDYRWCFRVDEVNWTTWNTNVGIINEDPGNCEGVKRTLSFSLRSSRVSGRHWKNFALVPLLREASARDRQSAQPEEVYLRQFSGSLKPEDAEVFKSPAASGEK
Put plainly: TRPV1 whole-cell electrophysiology, CHO cells expressing hTRPV1 alone. Format: cell-based. The source says: Extracellular (Bath) solution: The solution was composed of (in mM): NaCl, 140; KCl, 4; CaCl2, 1.8; MgCl2, 1.2; Glucose, 11; HEPES, 5.5. pH was adjusted to 7.3 with NaOH. Osmolarity was adjusted to 310 mOsm with Sucrose.
Intracellular (Pipette) solution: Pipettes were pulled from borosilicate glass (Warner Instrument Corp, USA) with a resistance of 3-7 MΩ and filled with internal solution composed of (in mM): KCl, 130; MgCl2, 1; K ATP, 5; EGTA, 5; HEPES, 10. pH was adjusted to 7.3 with KOH. Osmolarity was adjusted to 290 mOsm with Sucrose. A programmable valve-linked pressurized perfusion system was used to locally apply compounds nearby the cell recorded, in a consistent flow rate of 2-3 ml/min. Data were sampled at 5 kHz and low pass filtered at 2.4 kHz using MultiClamp 700B amplifier with pCLAMP11 software (Molecular Devices, USA).
[…]. A 3-minute time interval was set between sequential Capsaicin injections to allow its washout and cell recovery. All compounds are injected in the vicinity of the cells using the pressurized perfusion system.
The drug current response, when capsaicin (co-applied with test compound) is injected following >3 minutes of pre-incubation with the test compound, is divided by the averaged control currents, obtained when capsaicin is injection alone, before compound incubation and following its washout, to evaluate the drug/control response.

The next data set concerns Cannabinoid CB1-2. Put plainly: Functional screening panel, Cannabinoid CB1-2. Conditions: up to 10 micromolar. Format: biochemical. How it is done: as §1
The test system of another data set is BCRP. Put plainly: Transporter substrate, BCRP. Format: in vitro ADME. The conditions noted are these: role: substrate. How it is done: (§2) Additionally, compound 760 was tested for its capability to act as a transporter substrate for various transporters, and was not found to be a transporter substrate for any of the tested transporters.
Another data set deals with OATP2B1 (Homo sapiens, UniProt O94956). Put plainly: Transporter substrate, OATP2B1. The class given is in vitro ADME. The conditions noted are these: role: substrate. The protocol: as §2
OATP2B1, sequence (O94956 whole entry): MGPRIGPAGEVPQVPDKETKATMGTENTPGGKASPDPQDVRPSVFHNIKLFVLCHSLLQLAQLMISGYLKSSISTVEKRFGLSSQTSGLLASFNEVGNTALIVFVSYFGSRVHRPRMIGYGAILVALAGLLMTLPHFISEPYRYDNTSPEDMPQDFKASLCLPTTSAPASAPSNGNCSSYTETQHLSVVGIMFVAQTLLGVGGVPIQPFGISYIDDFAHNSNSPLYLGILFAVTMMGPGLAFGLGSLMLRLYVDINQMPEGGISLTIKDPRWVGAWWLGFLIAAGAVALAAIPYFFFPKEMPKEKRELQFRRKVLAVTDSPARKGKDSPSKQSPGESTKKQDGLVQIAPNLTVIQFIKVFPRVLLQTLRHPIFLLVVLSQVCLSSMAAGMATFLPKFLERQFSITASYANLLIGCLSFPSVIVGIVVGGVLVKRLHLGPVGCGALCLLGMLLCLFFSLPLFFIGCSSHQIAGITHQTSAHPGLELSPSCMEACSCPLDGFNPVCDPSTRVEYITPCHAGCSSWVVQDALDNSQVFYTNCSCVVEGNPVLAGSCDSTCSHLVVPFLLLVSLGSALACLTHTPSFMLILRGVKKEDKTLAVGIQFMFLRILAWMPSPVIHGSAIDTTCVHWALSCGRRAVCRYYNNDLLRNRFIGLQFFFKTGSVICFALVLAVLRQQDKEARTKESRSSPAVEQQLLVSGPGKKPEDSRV
Another data set deals with T3, Nav1.5 (Homo sapiens, UniProt Q14524).
T3 construct: Eurofins DiscoverX functional panel cells
T3 sequence (Q14524 whole entry): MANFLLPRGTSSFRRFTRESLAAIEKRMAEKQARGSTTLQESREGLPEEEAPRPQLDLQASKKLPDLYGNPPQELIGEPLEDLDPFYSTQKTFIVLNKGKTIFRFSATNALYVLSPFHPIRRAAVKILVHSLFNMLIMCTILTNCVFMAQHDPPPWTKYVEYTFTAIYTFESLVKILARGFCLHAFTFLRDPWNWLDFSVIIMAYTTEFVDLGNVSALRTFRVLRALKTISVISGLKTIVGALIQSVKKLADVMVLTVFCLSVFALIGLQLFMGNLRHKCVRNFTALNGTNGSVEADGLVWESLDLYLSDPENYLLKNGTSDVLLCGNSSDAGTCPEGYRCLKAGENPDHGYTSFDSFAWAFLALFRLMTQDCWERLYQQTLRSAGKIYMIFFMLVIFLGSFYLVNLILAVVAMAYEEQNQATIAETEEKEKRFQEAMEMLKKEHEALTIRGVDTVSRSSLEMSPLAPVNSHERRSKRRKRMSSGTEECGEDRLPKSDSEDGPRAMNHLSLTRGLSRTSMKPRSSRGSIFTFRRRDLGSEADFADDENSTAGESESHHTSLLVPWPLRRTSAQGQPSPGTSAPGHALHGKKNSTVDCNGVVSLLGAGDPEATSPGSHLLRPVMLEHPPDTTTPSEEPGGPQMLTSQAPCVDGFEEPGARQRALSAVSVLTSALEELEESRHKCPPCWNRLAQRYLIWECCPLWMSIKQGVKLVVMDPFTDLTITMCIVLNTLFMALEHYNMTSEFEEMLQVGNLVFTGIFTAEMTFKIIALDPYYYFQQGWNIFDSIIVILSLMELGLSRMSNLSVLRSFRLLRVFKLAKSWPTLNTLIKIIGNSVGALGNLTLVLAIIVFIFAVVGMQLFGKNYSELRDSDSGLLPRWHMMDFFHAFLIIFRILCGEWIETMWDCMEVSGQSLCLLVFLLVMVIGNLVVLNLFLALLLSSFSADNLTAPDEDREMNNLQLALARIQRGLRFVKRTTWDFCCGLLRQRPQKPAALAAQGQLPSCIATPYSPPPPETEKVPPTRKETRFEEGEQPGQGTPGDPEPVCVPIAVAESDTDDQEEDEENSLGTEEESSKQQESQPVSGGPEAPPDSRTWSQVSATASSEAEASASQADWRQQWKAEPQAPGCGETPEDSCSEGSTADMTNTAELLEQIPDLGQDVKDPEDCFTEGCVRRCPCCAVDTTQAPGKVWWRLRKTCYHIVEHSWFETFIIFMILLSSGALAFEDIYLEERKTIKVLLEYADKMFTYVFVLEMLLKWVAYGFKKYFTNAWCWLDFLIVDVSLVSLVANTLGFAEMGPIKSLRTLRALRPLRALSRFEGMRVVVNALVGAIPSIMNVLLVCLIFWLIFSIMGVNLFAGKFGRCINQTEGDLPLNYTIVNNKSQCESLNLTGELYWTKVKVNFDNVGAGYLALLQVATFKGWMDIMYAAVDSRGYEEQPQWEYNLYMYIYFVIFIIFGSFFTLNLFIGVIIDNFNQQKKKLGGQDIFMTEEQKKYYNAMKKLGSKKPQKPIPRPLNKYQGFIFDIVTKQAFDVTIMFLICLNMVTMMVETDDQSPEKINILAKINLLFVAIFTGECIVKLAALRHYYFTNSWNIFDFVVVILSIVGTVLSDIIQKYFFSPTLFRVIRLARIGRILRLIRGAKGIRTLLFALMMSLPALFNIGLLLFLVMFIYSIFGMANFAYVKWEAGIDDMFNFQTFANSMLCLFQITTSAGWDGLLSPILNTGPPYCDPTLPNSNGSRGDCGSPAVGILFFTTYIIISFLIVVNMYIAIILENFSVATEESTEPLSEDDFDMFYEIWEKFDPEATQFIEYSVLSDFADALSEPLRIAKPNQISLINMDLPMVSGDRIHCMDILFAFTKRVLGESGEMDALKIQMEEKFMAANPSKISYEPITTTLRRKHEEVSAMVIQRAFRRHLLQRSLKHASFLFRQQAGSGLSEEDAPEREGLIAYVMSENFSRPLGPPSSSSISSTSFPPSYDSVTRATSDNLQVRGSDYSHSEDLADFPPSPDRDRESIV
Put plainly: Functional selectivity panel, Nav1.5. Format: biochemical. Conditions: up to 10 micromolar. The protocol: as §1

The test system of another data set is Bradykynin B1-2. Put plainly: Functional screening panel, Bradykynin B1-2. The class given is biochemical. The conditions noted are these: up to 10 micromolar. How it is done: as §1
Another data set relates to Dopamine D1-D5. Put plainly: Functional screening panel, Dopamine D1-D5. Format: biochemical. Conditions: up to 10 micromolar. The protocol: as §1
The next data set has as its target OAT3 (Homo sapiens, UniProt Q8TCC7). Put plainly: Transporter substrate, OAT3. Conditions: role: substrate. Format: in vitro ADME. How it is done:
as §2

In another data set the test system is 98 targets. Put plainly: Functional screening panel, 98 targets.
The subject of another data set is Vasopressin 1-2. Put plainly: Functional screening panel, Vasopressin 1-2. The class given is biochemical. Conditions: up to 10 micromolar. The protocol: as §1
In the next data set the target is 5-HT1A (Homo sapiens, UniProt P08908). Put plainly: Functional screening panel, 5-HT1A. Format: biochemical. The conditions noted are these: antagonist; read-out: IC/EC50 5-HT1A-antagonist. How it is done:
as §1

The subject of the next data set is NMDA. Put plainly: Functional selectivity panel, NMDA. Format: biochemical. Conditions: up to 10 micromolar. The protocol: as §1

OAT3, sequence (Q8TCC7 whole entry): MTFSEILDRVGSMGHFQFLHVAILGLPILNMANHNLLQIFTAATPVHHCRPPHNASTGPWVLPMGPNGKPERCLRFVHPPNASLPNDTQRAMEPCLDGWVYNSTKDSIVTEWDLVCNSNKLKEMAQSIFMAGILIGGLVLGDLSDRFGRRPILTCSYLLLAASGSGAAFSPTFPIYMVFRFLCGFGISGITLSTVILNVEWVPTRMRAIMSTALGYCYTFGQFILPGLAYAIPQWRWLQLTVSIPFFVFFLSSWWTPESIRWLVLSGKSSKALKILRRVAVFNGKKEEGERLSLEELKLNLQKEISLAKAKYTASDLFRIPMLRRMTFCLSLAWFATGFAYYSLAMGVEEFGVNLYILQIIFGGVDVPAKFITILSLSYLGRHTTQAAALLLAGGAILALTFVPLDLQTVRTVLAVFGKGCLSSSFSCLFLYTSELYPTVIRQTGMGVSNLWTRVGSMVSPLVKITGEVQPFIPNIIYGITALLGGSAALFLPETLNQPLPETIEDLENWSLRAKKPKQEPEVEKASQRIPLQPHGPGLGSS
5-HT1A, sequence (P08908 whole entry, species assumed): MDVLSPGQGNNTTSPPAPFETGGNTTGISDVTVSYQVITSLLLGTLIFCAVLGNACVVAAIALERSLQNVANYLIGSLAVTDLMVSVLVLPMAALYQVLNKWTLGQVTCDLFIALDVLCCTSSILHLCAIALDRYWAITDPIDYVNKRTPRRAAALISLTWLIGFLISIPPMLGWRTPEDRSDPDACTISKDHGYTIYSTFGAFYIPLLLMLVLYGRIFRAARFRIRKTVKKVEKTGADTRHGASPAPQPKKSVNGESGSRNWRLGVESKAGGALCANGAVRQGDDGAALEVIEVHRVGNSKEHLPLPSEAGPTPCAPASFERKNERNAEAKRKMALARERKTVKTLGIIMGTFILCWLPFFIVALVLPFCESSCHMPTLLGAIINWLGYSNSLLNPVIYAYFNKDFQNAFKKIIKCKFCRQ

For `O=C(Cc1cncc(-n2cc(Cl)c3cc(Cl)cc(Cl)c32)c1)N[C@@H]1COC[C@H]1O` [Compound 661], in data set [1], the Thermal withdrawal latency entry is on record as “completely reversed”. On 5-HT1B, this compound returned an IC50 of 10 µM. Also, the “Free exposure in DRG” value in “DRG distribution in rat” is 0.012 nM.
Consider `O=C(Cc1cc(-n2cc(Cl)c3cc(Cl)cc(Cl)c32)ccc1F)NCCO` [Compound 627], for which, at hTRPV1, the IC50 is 2 µM. Also, at hTRPV1 (1.3 μM), the “TRPV1 inhibition, hTRPV1 alone” value is “partial TRPV1 inhibition”.
Turning to `O=C(Cc1nccc(-n2cc(Cl)c3cc(Cl)cc(Cl)c32)n1)NC1COCC1O` (stereo not shown) [Compound 760], in the data set with Cannabinoid CB1-2, the “Effect on Cannabinoid CB1-2” value is given as “no effect”. In addition, in the data set on BCRP, the BCRP substrate entry was “not a transporter substrate or a poor substrate”. Moreover, the OATP2B1 substrate entry at OATP2B1 is “not a transporter substrate”. For the same compound, on Nav1.5, the “Effect on Nav1.5” value is “no effect”. For the same compound, in the data set with Bradykynin B1-2, the “Effect on Bradykynin B1-2” value is recorded as “no effect”. Moreover, the “Effect on Dopamine D1-D5” value in the data set with Dopamine D1-D5 was “no effect”. Further, the OAT3 substrate result on OAT3 is on record as “not a transporter substrate”. Further, the “Off-target effect profile” value in the data set with 98 targets is “clean off-target effect profile”. Also, the “Effect on Vasopressin 1-2” value with Vasopressin 1-2 is “no effect”. In addition, the IC50 on 5-HT1A turned out to be 30.4 µM. Also, the “Effect on NMDA” value in the data set with NMDA is on record as “no effect”.
